The molecules below were run against POLRMT (Homo sapiens (Human), UniProt O00411) (assay: homogeneous TR-FRET assay of mitochondrial transcription (inhibition of POLRMT)). Details: 7.5 nM POLRMT, 15 nM TFB2M, 30 nM TFAM, 0.5 nM DNA template, 500 μM NTPs, 37° C. for 60 minutes.
Assay type: biochemical
Method: The ability of some compounds of the present invention to inhibit POLRMT were determined in a homogeneous TR-FRET Assay using high-throughput screening in a 384-well plate format. […] Detection of the product is facilitated by hybridization of two DNA-oligonucleotide probes to specific and adjacent sequences within the RNA product sequence. Upon annealing of the probes, two fluorophores are coupled directly to an acceptor nucleotide probe (ATTO647, 5′), or introduced via a coupled streptavidin with a biotinylated donor nucleotide probe (Europium cryptate) that is brought into sufficient proximity to serve as a fluorescence-donor-acceptor pair. Thus, a FRET signal at 665 nm is generated upon excitation at 340 nm.
The DNA template is restriction linearized proximal to the promotor 3′-end (pUC-LSP). […] No nucleotide triphosphate mix is added to negative control samples. Microplates with compounds to be tested in the assay are prepared from 10 mM compound stocks in 100% DMSO, equal amounts of DMSO without any compound are added to positive control and negative control samples.
During the incubation, a mix of the detection reagents is prepared in a buffer such that the enzymatic reaction is terminated due to chelating of Mg-ions and increased ionic strength, containing 50 mM Tris-HCl (pH 7.5), 700 mM NaCl, 20 mM EDTA, and 0.01% (w/v) Tween-20. Europium-streptavidin is pre-incubated with a 200-fold molar excess of a random sequence oligonucleotide to block unspecific binding of oligo, for two hours at ambient temperature in the dark. Afterwards, the blocked Europium-streptavidin is kept on ice until use.
At the end of the enzymatic reaction time, 5 μL detection oligo mix in the detection buffer is added, and assay plates are mixed and kept at ambient temperature for one hour, protected from light. The concentration of the Acceptor nucleotide oligo (e.g., ATTO647N-5′-[…]-3′) and Donor nucleotide oligo (e.g., bio-5′-[…](-bio)[…]-bio-3′) in each assay well is 1 nM, and 3 nM, respectively.
After incubation with oligo mix, 5 μL of pre-blocked Europium-streptavidin reagent is dispensed to each assay well, assay plates are again mixed and kept at ambient temperature for one hour, protected from light.
The generated signal is measured with BMG Pherastar microtiter plate reader with a TRF light unit, using excitation at 340 nm, an integration time of 200 μs, and a delay time of 100 μs, before detection at 620 nm and 665 nm. The ratio of donor- and acceptor-fluorescence is used as a measure of the generated transcript product (i.e. enzymatic activity).

POLRMT, sequence (O00411 42-1230): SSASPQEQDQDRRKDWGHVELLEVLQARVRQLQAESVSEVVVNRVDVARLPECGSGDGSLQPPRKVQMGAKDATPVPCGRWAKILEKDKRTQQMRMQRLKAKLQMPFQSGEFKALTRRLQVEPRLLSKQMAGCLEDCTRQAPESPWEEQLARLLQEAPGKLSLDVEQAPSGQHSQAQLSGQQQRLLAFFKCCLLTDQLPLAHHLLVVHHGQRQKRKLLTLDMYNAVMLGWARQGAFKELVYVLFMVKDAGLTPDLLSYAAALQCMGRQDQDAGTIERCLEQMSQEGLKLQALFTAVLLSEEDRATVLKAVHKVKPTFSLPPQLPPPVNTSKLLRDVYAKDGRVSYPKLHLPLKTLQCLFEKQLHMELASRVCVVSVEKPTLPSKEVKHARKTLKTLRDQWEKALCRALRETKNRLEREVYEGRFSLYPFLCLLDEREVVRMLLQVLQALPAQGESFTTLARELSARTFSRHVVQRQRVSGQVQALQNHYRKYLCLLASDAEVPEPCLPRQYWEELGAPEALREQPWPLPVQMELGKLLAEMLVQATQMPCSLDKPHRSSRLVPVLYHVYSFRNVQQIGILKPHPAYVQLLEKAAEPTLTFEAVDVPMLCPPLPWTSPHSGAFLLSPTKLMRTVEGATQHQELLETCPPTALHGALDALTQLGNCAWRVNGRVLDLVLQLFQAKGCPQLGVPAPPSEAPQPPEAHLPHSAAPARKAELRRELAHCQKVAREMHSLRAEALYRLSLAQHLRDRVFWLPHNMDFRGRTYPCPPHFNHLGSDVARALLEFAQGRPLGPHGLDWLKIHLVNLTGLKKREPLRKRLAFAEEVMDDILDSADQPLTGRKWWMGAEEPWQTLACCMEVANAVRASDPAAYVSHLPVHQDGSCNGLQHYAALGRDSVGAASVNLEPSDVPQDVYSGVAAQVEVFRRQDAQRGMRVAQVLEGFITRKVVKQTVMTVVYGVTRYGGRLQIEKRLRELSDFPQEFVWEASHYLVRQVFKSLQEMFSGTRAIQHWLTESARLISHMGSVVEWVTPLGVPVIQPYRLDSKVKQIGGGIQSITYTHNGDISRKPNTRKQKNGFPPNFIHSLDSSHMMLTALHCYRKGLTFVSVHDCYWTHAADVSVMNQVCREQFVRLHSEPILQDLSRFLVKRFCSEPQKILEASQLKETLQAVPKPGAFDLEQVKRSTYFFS

Question: How did the IC50 turn out when `Cc1ccccc1-c1cc(=O)oc2cc(CC(C)C(=O)N3CCC[C@H](S(N)(=O)=O)C3)ccc12` (single isomer, unassigned) [Example 97] was run?
Answer: 300 nM

Question: With `Cc1ccccc1-c1cc(=O)oc2cc(CC(C)C(=O)N3CCC[C@H](S(N)(=O)=O)C3)ccc12` (single isomer, unassigned) [Example 98] as the molecule, how does the IC50 read?
Answer: 14000 nM

Question: For `Cc1ccccc1-c1cc(=O)oc2cc(CC(C)C(=O)N3CC[C@H](C(=O)O)C3)ccc12` (single isomer, unassigned) [Example 99], which IC50 is on record?
Answer: 400 nM

Question: With `Cc1ccccc1-c1cc(=O)oc2cc(CC(C)C(=O)N3CC[C@H](C(=O)O)C3)ccc12` (single isomer, unassigned) [Example 100] as the molecule, how does the IC50 read?
Answer: 21000 nM

Question: For `COC[C@@H](C(=O)N1CCC[C@H](C(=O)O)C1)N(C)c1ccc2c(-c3ccccc3C)cc(=O)oc2c1` (single isomer, unassigned) [Example 120], which IC50 is on record?
Answer: 21000 nM

Question: Which IC50 does the source give for `COC[C@@H](C(=O)N1CCC[C@H](C(=O)O)C1)N(C)c1ccc2c(-c3ccccc3C)cc(=O)oc2c1` (single isomer, unassigned) [Example 121] here?
Answer: 300 nM

Question: With `Cc1ccccc1-c1cc(=O)oc2cc(NCC(C)C(=O)O)ccc12` (single isomer, unassigned) [Example 154-1, 2-methyl-3-((2-oxo-4-(o-tolyl)-2H-chromen-7-yl)amino)propanoic acid] as the molecule, how does the IC50 read?
Answer: 1000 nM

Question: With `Cc1ccccc1-c1cc(=O)oc2cc(N(C)CC(C)C(=O)O)ccc12` (single isomer, unassigned) [Example 154-2] as the molecule, how does the IC50 read?
Answer: 500 nM

Question: `Cc1ccccc1-c1cc(=O)oc2cc(NCC(C)C(=O)O)ccc12` (single isomer, unassigned) [Example 155-1, 2-methyl-3-((2-oxo-4-(o-tolyl)-2H-chromen-7-yl)amino)propanoic acid] was tested. Which IC50 did it give?
Answer: 500 nM

Question: For `CC(=O)NC1CCCN(C(=O)c2ccc3c(-c4ccccc4C)cc(=O)oc3c2)C1` (single isomer, unassigned) [Example 175, N-(1-(2-oxo-4-(o-tolyl)-2H-chromene-7-carbonyl)piperidin-3-yl)acetamide], which IC50 is on record?
Answer: > 100000 nM

Question: Which IC50 does the source give for `CC(=O)NC1CCCN(C(=O)c2ccc3c(-c4ccccc4C)cc(=O)oc3c2)C1` (single isomer, unassigned) [Example 176, N-(1-(2-oxo-4-(o-tolyl)-2H-chromene-7-carbonyl)piperidin-3-yl)acetamide] here?
Answer: 75000 nM

Question: With `Cc1ccccc1-c1cc(=O)oc2cc(NC(C)C(N)=O)ccc12` (single isomer, unassigned) [Example 189, 2-((2-oxo-4-(o-tolyl)-2H-chromen-7-yl)amino)propanamide] as the molecule, how does the IC50 read?
Answer: 900 nM

Question: How did the IC50 turn out when `Cc1ccccc1-c1cc(=O)oc2cc(NC(C)C(N)=O)ccc12` (single isomer, unassigned) [Example 190, 2-((2-oxo-4-(o-tolyl)-2H-chromen-7-yl)amino)propanamide] was run?
Answer: 800 nM

Question: For `COCC(Cc1ccc2c(-c3ccccc3C)cc(=O)oc2c1)C(N)=O` (single isomer, unassigned) [Example 207, 3-methoxy-2-((2-oxo-4-(o-tolyl)-2H-chromen-7-yl)methyl)propanamide], which IC50 is on record?
Answer: 17000 nM

Question: For `COCC(Cc1ccc2c(-c3ccccc3C)cc(=O)oc2c1)C(N)=O` (single isomer, unassigned) [Example 208, 3-methoxy-2-((2-oxo-4-(o-tolyl)-2H-chromen-7-yl)methyl)propanamide], which IC50 is on record?
Answer: 3000 nM

Question: For `Cc1ccccc1-c1cc(=O)oc2cc(N(C)C)ccc12` [Example 01, 7-(dimethylamino)-4-(o-tolyl)-2H-chromen-2-one], which IC50 is on record?
Answer: 400 nM

Question: For `CNC(=O)c1ccc2c(-c3ccccc3C)cc(=O)oc2c1` [Example 02, N-methyl-2-oxo-4-(o-tolyl)-2H-chromene-7-carboxamide], which IC50 is on record?
Answer: 2000 nM

Question: With `Cc1ccc2c(-c3ccc(F)cc3Cl)cc(=O)oc2c1` [Example 03, 4-(2-chloro-4-fluorophenyl)-7-methyl-2H-chromen-2-one] as the molecule, how does the IC50 read?
Answer: 19000 nM

Question: For `CNCc1ccc2c(-c3ccc(F)cc3Cl)cc(=O)oc2c1` [Example 04, 4-(2-chloro-4-fluorophenyl)-7-((methylamino)methyl)-2H-chromen-2-one], which IC50 is on record?
Answer: > 100000 nM

From patent US20250326732A1 (Pretzel Therapeutics, Inc., priority 2021, published 2025)
